Laboratory results published in PubChem BioAssay (NCI).
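Abbreviation: GI50, concentration required for 50% inhibition of growth. TGI is the concentration that stops growth completely.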

Tests used:
Assay in all cases: growth of human tumour cells (NCI), 384-well format
U251 glioblastoma = tested on: U251 glioblastoma
UACC-62 melanoma = tested on: UACC-62 melanoma
KM12 colon = tested on: KM12 colon
HCT-116 colon = tested on: HCT-116 colon
COLO 205 colon = tested on: COLO 205 colon
NCI/ADR-RES ovarian = tested on: NCI/ADR-RES ovarian
EKVX NSCLC = tested on: EKVX NSCLC
RXF 393 renal = tested on: RXF 393 renal
NCI-H226 lung = tested on: NCI-H226 lung
SF-295 CNS = tested on: SF-295 CNS
MDA-MB-468 breast = tested on: MDA-MB-468 breast
PC-3 prostate = tested on: PC-3 prostate
NCI-H23 lung = tested on: NCI-H23 lung

## C[C@@H]1Cc2c(ccc3[nH]ncc23)[C@@H](c2ccc(NC3CN(CCCF)C3)cn2)N1CC(F)(F)F
U251 glioblastoma
  GI50: 15 µM
  TGI: 28.4 µM
UACC-62 melanoma
  GI50: 13.8 µM
  TGI: 26.8 µM
KM12 colon
  GI50: 15.8 µM
  TGI: 29.8 µM
HCT-116 colon
  GI50: 13.3 µM
  TGI: 26.2 µM
COLO 205 colon
  GI50: 16.1 µM
  TGI: 29.7 µM
NCI/ADR-RES ovarian
  GI50: 23.5 µM
  TGI: 62.6 µM
EKVX NSCLC
  GI50: 13.8 µM
  TGI: 27.7 µM
RXF 393 renal
  GI50: 4.54 µM
  TGI: 16.1 µM
NCI-H226 lung
  GI50: 17.4 µM
  TGI: 53.3 µM
SF-295 CNS
  GI50: 17.7 µM
  TGI: 31.6 µM
MDA-MB-468 breast
  GI50: 7.75 µM
  TGI: 20.1 µM
PC-3 prostate
  GI50: 14.9 µM
  TGI: 28.6 µM
NCI-H23 lung
  GI50: 11.7 µM
  TGI: 24.3 µM
